Data reported in US9371290B2, “Pyridazinone compounds” (BIOTIE THERAPIES CORPORATION, priority 2011, dated 2016).

Row | melting point [°C] | SMILES
1 | 238 to 240 | [N-]=[N+]=Nc1cc(=O)n(-c2ccccc2)nc1C1=NCCN1 [Compound 47, 5-Azido-6-(4,5-dihydro-1H-imidazol-2-yl)-2-phenylpyridazin-3(2H)-one]
2 | 245 to 247 | Cc1nc(-c2nn(-c3ccccc3)c(=O)cc2Oc2ccccc2)n[nH]1 [Compound 51, 5-phenoxy-2-phenyl-6-(5-methyl-1H-1,2,4-triazol-3-yl)-3(2H)-pyridazinone]
3 | 342 to 344 | O=c1cc(Nc2ccncc2)c(-c2nc[nH]n2)nn1-c1ccccc1 [Compound 53]
4 | 307 to 310 | CC(C)Nc1cc(=O)n(-c2ccccc2)cc1-c1nc[nH]n1 [Compound 54, 4-isopropylamino-1-phenyl-5-(1H-1,2,4-triazol-3-yl)-pyridin-2(1H)-one]
5 | 227 to 230 | COc1ccc(Nc2cc(=O)n(-c3ccc(Cl)cc3)nc2-c2nc[nH]n2)cc1OC [Compound 60]
6 | 244 to 246 | O=c1cc(Nc2ccccc2)c(-c2nc[nH]n2)nn1-c1ccc(Cl)cc1 [Compound 64]
7 | 278 to 281 | Nc1ccc(Nc2cc(=O)n(-c3ccc(Cl)cc3)nc2-c2nc[nH]n2)cc1 [Compound 66]
8 | 270 to 272 | CN1CCC(Nc2cc(=O)n(-c3ccc(Cl)cc3)nc2-c2nc[nH]n2)CC1 [Compound 67]
9 | 233 to 235 | O=c1cc(Nc2ccccc2)c(-c2nc[nH]n2)nn1-c1cccc(F)c1 [Compound 69]
10 | 243 to 245 | CN(C)c1ccc(Nc2cc(=O)n(-c3cccc(Cl)c3)nc2-c2nc[nH]n2)cc1 [Compound 72]
11 | 80 to 82 | NNC(=O)c1nn(-c2ccccc2)c(=O)cc1Oc1ccccc1 [Compound 76]
12 | 303 to 306 | N#CCNc1cc(=O)n(-c2ccc(Cl)cc2)nc1-c1nc[nH]n1 [Compound 79]
13 | 212 to 224 | O=c1cc(Nc2ccc(N3CCNCC3)cc2)c(-c2nc[nH]n2)nn1-c1ccc(Cl)cc1 [Compound 80, 2-(4-chlorophenyl)-5-{[4-(4-piperazine-1-yl)phenyl]amino}-6-(1H-1,2,4-triazol-3-yl)-3(2H)-pyridazinone]
14 | 210 to 212 | C#CCN(C)c1cc(=O)n(-c2ccc(Cl)cc2)nc1-c1nc[nH]n1 [Compound 82]

Continued, compound first:

Row | SMILES | melting point [°C]
15 | CN1CCN(c2cc(=O)n(-c3ccccc3)nc2C(N)=O)CC1.Cl | 248 to 250
16 | CN(C)CCNC(=O)c1nn(-c2ccccc2)c(=O)cc1Oc1ccccc1.Cl | 138 to 141
17 | Cn1nccc1-c1nn(-c2ccccc2)c(=O)cc1Oc1ccccc1 [Compound 1] | 118 to 119
18 | O=c1cc(O)c(-c2nc[nH]n2)nn1-c1ccccc1 [Compound 3] | 218 to 220
19 | COC(=O)c1nn(-c2ccccc2)c(=O)cc1-n1cc(-c2ccccc2)nn1 [Compound 6] | 240 to 248
20 | CCOC(=O)c1cn(-c2cc(=O)n(-c3ccccc3)nc2C(=O)OC)nn1 [Compound 7] | 165 to 170
21 | N=CNNC(=O)c1nn(-c2ccccc2)c(=O)cc1Sc1ccccc1 [Compound 8, N^2-iminomethyl-6-oxo-4-phenylsulfanyl-1-phenyl-1,6-dihydropyridazin-3-carbohydrazide] | 236 to 238
22 | O=c1cc(Oc2ccccc2)c(-c2cccnc2)nn1-c1ccccc1 [Compound 9] | 155 to 157
23 | O=c1cc(Oc2ccc(Cl)cc2)c(-c2nc[nH]n2)nn1-c1ccccc1 [Compound 15] | 235 to 240
24 | O=c1cc(Oc2ccccc2)c(-c2ccco2)nn1-c1ccccc1 [Compound 18] | 232 to 234
25 | Cc1noc(C)c1-c1nn(-c2ccccc2)c(=O)cc1Oc1ccccc1 [Compound 19] | 122 to 124
26 | Cc1ccsc1-c1nn(-c2ccccc2)c(=O)cc1Oc1ccccc1 [Compound 20] | 212 to 214
27 | O=c1cc(Oc2ccccc2)c(-c2cccc(C(F)(F)F)c2)nn1-c1ccccc1 [Compound 21, 5-phenoxy-2-phenyl-6-[(3-trifluoromethyl)phenyl]pyridazin-3(2H)-one] | 146 to 148
28 | CN(C)/C=N/C(=O)c1nn(-c2ccccc2)c(=O)cc1Oc1ccccc1 [Compound 23, N,N-dimethyl-N′-[(6-oxo-4-phenoxy-1-phenyl-1,6-dihydropyridazin-3-yl)carbonyl]formamidine] | 175 to 176
29 | CCCc1cn(-c2cc(=O)n(-c3ccccc3)nc2C(=O)OC)nn1 [Compound 24] | 146 to 148
30 | COc1ccc(-n2nc(-c3nc[nH]n3)c(Oc3ccccc3)cc2=O)cc1 [Compound 26] | 284 to 286
31 | O=c1cc(Oc2ccccc2)c(-c2cn[nH]c2)nn1-c1ccccc1 [Compound 30] | 245 to 247
32 | COc1cc(=O)n(-c2ccccc2)nc1-c1nc[nH]n1 [Compound 31] | 235 to 240
33 | CCCc1cn(-c2cc(=O)n(-c3ccccc3)nc2C#N)nn1 [Compound 32, 6-oxo-1-phenyl-4-(4-propyl-1H-1,2,3-triazol-1-yl)-1,6-dihydropyridazine-3-carbonitrile] | 192 to 195
34 | O=c1cc(Oc2ccccc2)c(-c2nc[nH]n2)nn1-c1cccc(C(F)(F)F)c1 [Compound 33] | 257 to 258
35 | O=c1cc(Nc2ccccc2)c(-c2nc[nH]n2)nn1-c1ccccc1 [Compound 40] | 287 to 290
36 | Cn1cnc(-c2nn(-c3ccccc3)c(=O)cc2Oc2ccccc2)n1 [Compound 41] | 235 to 237
37 | O=c1cc(N2CCCC2)c(-c2nc[nH]n2)nn1-c1ccccc1 [Compound 44] | 301 to 303
38 | O=c1cc(Oc2ccccc2)c(-c2nc[nH]n2)nn1-c1ccccc1F [Compound 45] | 265 to 267
